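The compound was tested at five concentrations on cells cultured in 96-well plates, with a 48-hour exposure period. At the GI50, growth is halved.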 Active and inactive are the calls of the source. No stated cut-off is given here; in the data, active = GI50 up to about 1.1 µM and inactive = higher. *1 amine or outer side, *2 acyl side, *3 side chain or, on linkers, in order; H or OH if unused. Where a SMILES comes first, the peptide text is derived from it. [ ]: non-standard residue; d: D form. The star is where a group is joined. X31 = CC(=O)N(C)SCC(N[*:1])C(=O)[*:2]; Fmoc = O=C(OCC1c2ccccc2-c2ccccc21)*; For = O=C*
What was measured:
Assay in all cases: NCI-60 cell line screen, 48 h
[1] = system: 786-0
[2] = system: COLO 205
[3] = system: HOP-62
[4] = system: HT-29
[5] = system: IGROV-1
[6] = system: KM12
[7] = system: M14
[8] = system: M19-MEL
[9] = system: NCI-H23
[10] = system: OVCAR-3
[11] = system: OVCAR-4
[12] = system: OVCAR-8
[13] = system: RPMI-8226
[14] = system: SK-MEL-5
[15] = system: SK-OV-3
[16] = system: SNB-19
[17] = system: SR
[18] = system: UACC-62
[19] = system: MCF7
[20] = system: T47D

Measured: GI50

NS(=O)(=O)c1ccc(NC2=CC(=O)C(=O)c3ccccc32)cc1
inactive: [1] > 100 µM | [2] > 100 µM | [3] > 100 µM | [4] > 100 µM | [5] > 100 µM | [6] > 100 µM | [7] > 100 µM | [8] > 100 µM | [9] > 100 µM | [10] > 100 µM | [11] > 100 µM | [12] > 100 µM | [13] > 100 µM | [14] > 100 µM | [15] > 100 µM | [16] > 100 µM | [17] > 100 µM | [18] > 100 µM

O=[N+]([O-])c1ccc(/C=N/C23CC4CC(CC(C4)C2)C3)cc1
inactive: [1] > 100 µM | [2] > 100 µM | [3] > 100 µM | [4] > 100 µM | [5] > 100 µM | [6] > 100 µM | [7] > 100 µM | [8] > 100 µM | [9] > 100 µM | [10] > 100 µM | [11] > 100 µM | [12] > 100 µM | [13] > 100 µM | [15] > 100 µM | [16] > 100 µM | [18] > 100 µM

CN(C)/C=C/C(=O)c1cccc(C(=O)/C=C/N(C)C)n1
inactive: [1] > 100 µM | [2] > 100 µM | [3] > 100 µM | [4] > 100 µM | [5] > 100 µM | [6] > 100 µM | [7] > 100 µM | [8] > 100 µM | [9] > 100 µM | [10] > 100 µM | [11] > 100 µM | [12] 80.4 µM | [13] > 100 µM | [14] > 100 µM | [15] > 100 µM | [16] > 100 µM | [17] > 100 µM | [18] > 100 µM

O=C1c2c(c3c4ccccc4n(CC4CO4)c3c3[nH]c4ccccc4c23)C(=O)N1Cc1ccccc1 (centres undefined)
inactive: [1] > 100 µM | [3] > 100 µM | [4] > 100 µM | [5] 67 µM | [6] > 100 µM | [7] > 100 µM | [8] > 100 µM | [9] > 100 µM | [10] > 100 µM | [11] 33 µM | [12] 48.2 µM | [13] > 100 µM | [14] > 10 µM | [15] > 100 µM | [16] > 100 µM | [17] > 100 µM | [18] > 100 µM

N#CCN1C(=O)c2cc([N+](=O)[O-])cc3cc([N+](=O)[O-])cc(c23)C1=O
inactive: [1] 11.8 µM | [2] 11.4 µM | [3] 18.8 µM | [4] 16.8 µM | [5] 13.2 µM | [6] 11.2 µM | [7] 17 µM | [8] 14.3 µM | [9] 15.9 µM | [10] 13.4 µM | [11] 14.8 µM | [12] 13.8 µM | [13] 5.51 µM | [14] 15.6 µM | [15] 39.6 µM | [16] 24.2 µM | [17] 1.36 µM | [18] 12.4 µM

CN1C(=O)N(c2nc3ccccc3[nH]2)C(C)(C)C1=O
inactive: [1] > 100 µM | [2] > 100 µM | [3] > 100 µM | [4] > 100 µM | [5] > 100 µM | [6] > 100 µM | [7] > 100 µM | [8] > 100 µM | [9] > 100 µM | [10] > 100 µM | [11] > 100 µM | [12] > 100 µM | [13] > 100 µM | [14] > 100 µM | [15] > 100 µM | [16] > 100 µM | [17] > 100 µM | [18] > 100 µM

Cc1c(CN2CCOCC2)c(CN2CCOCC2)c(C)n1-c1ccc(Cl)cn1
inactive: [1] > 100 µM | [2] > 100 µM | [3] > 100 µM | [4] > 100 µM | [5] > 100 µM | [6] > 100 µM | [7] > 100 µM | [19] > 100 µM | [9] > 100 µM | [10] > 100 µM | [11] > 100 µM | [12] > 100 µM | [13] > 100 µM | [14] > 100 µM | [15] > 100 µM | [16] > 100 µM | [17] > 100 µM | [20] > 100 µM | [18] > 100 µM

CCOC(=O)C1=C(C)N(c2ccc(C)cc2)C2=C(C(=O)N(c3ccccc3)C2c2ccccc2)C1c1ccccc1 (centres undefined)
inactive: [1] > 25 µM | [2] > 25 µM | [3] > 25 µM | [4] > 25 µM | [5] > 25 µM | [7] > 25 µM | [8] > 25 µM | [9] 11.9 µM | [10] > 25 µM | [11] 11.3 µM | [12] > 25 µM | [13] 14 µM | [14] 16.5 µM | [16] > 25 µM | [17] 17.7 µM | [18] 17.2 µM

OCc1cc2c(cn1)[nH]c1ccc(NCc3ccccc3)cc12
inactive: [1] 25.2 µM | [2] 17.7 µM | [3] 51.9 µM | [4] 14.8 µM | [5] 43 µM | [6] 18.6 µM | [7] 16.4 µM | [8] 22.2 µM | [9] 20 µM | [10] 19.4 µM | [11] 26.5 µM | [12] 29.4 µM | [13] 11 µM | [14] 12.2 µM | [15] 25.5 µM | [16] 37.3 µM | [18] 17.2 µM

N#CC(C(=O)Nc1ccccc1)C1=C(Cl)C(=O)c2ccccc2C1=O (centres undefined)
inactive: [1] 14.6 µM | [2] 17.5 µM | [3] 17.9 µM | [4] 26 µM | [5] 17.9 µM | [6] 21.5 µM | [7] 16.5 µM | [8] 7.66 µM | [9] 18.5 µM | [10] 15.6 µM | [11] 16.9 µM | [12] 18.9 µM | [14] 16.1 µM | [15] 23.9 µM | [16] 17.7 µM | [18] 16.8 µM

COc1ccc(/C=C/c2nnc(S)[nH]2)cc1OC
inactive: [1] > 100 µM | [4] > 100 µM | [5] > 100 µM | [7] > 100 µM | [8] > 100 µM | [9] > 100 µM | [10] > 100 µM | [11] > 100 µM | [12] > 100 µM | [13] > 100 µM | [14] > 100 µM | [16] > 100 µM | [17] > 100 µM | [18] > 100 µM

O=C(O)C(NCc1ccccc1)C(NCc1ccccc1)C(=O)O (centres undefined)
inactive: [1] > 100 µM | [2] > 100 µM | [3] > 100 µM | [4] > 100 µM | [5] > 100 µM | [6] > 100 µM | [7] > 100 µM | [19] > 100 µM | [9] > 100 µM | [10] > 100 µM | [11] > 100 µM | [12] > 100 µM | [13] > 100 µM | [14] > 100 µM | [15] > 100 µM | [16] > 100 µM | [17] > 100 µM | [20] > 100 µM | [18] > 100 µM

Clc1ccccc1C1N2CCCCC2[C@@H]2c3[nH]c4ccccc4c3CCN12 (some centres undefined)
inactive: [1] 21.2 µM | [2] 19.3 µM | [3] 29.9 µM | [4] 17.1 µM | [5] 35.1 µM | [7] 17.3 µM | [8] 14.7 µM | [9] 23.6 µM | [10] 16.2 µM | [11] 19.1 µM | [12] 19.8 µM | [13] 23.8 µM | [14] > 10 µM | [15] 21.6 µM | [16] 23 µM | [18] 15 µM

CC1=CC(=O)CC2(C)CC[C@@H]3C[C@]12OC3(C)C (some centres undefined)
inactive: [1] > 100 µM | [2] > 100 µM | [3] > 100 µM | [4] > 100 µM | [5] > 100 µM | [6] > 100 µM | [7] > 100 µM | [8] > 100 µM | [9] > 100 µM | [10] > 100 µM | [11] > 100 µM | [12] > 100 µM | [13] > 100 µM | [14] > 100 µM | [15] > 100 µM | [16] > 100 µM | [17] > 100 µM | [18] > 100 µM

CC(=O)N(C)SCC(NC(=O)C(Cc1ccccc1)NC(=O)OCC1c2ccccc2-c2ccccc21)C(=O)NC(Cc1ccccc1)C(=O)NC(Cc1cn(C=O)c2ccccc12)C(=O)NC(CCCCNC(=O)OCC1c2ccccc2-c2ccccc21)C(=O)NC(C(=O)NC(CSN(C)C(C)=O)C(=O)NC(C(N)=O)C(C)O)C(C)O (centres undefined) (Fmoc-F[X31]FW(For)K(Fmoc)T[X31]T-NH2; configuration not given here)
inactive: [1] > 100 µM | [2] 36.6 µM | [3] > 100 µM | [4] > 100 µM | [5] 66.4 µM | [6] 19.8 µM | [7] 31 µM | [19] 47.4 µM | [9] 20.8 µM | [10] > 100 µM | [11] > 100 µM | [12] > 100 µM | [13] > 100 µM | [14] 55.1 µM | [15] 37.2 µM | [16] 75.5 µM | [17] 76.9 µM | [20] > 100 µM | [18] 58.6 µM
